According to patent publication US11040949B2, “Compounds affecting pigment production and methods for treatment of bacterial diseases” (Versitech Limited, priority 2017, dated 2021):

What was measured:
[1] = target: 4,4-diapophytoene desaturase (CrtN) (Staphylococcus aureus, UniProt O07855); conditions: reference [5]; cited from earlier work
[2] = system: methicillin-resistant S. aureus (MRSA); test: MRSA skin infection, wound closure; format: in vivo, mice; conditions: Day 7
Procedure: FIG. 11B are photos from the top view of mice with skin infection caused by MRSA before (at Day 0) and after different treatments (at Day 7): top left received 2% mupirocin via topical BID for 7 days; top right received 100 mg/kg linezolid via oral BID for 7 days; bottom received 30 mg/kg IM032 via oral BID for 7 days.
Visual wound healing/closure in different treatment groups of mice can be observed in FIG. 11B.

S. aureus USA300 = test: In vitro staphyloxanthin production inhibition by NP-16 analogues; format: cell-based, Staphylococcus aureus; conditions: S. aureus USA300, methanol extract OD 450 nm, 300 nM to 700 nM
Procedure: Evaluation of NP-16 analogues in Staphyloxanthin production
The in vitro pigment inhibition studies were performed by S. aureus USA300 cultured in BHI with or without the presence of inhibitor compounds at 37° C. and 250 rpm for 36-48 hours. The bacteria were washed twice with PBS prior to the staphyloxanthin purification with methanol. The OD of the extracts were monitor at 450 nm using DTX880 multi-plate reader spectrophotometer (Beckman). The concentration range tested for the compounds were between 300 nM to 700 nM, and control groups were added with equal volume of DMSO.
The cytotoxicity of NP-16 and some of its analogues was tested against Raw 264.7 cells, and the cell tolerance of each compounds were documented in Table 3. Along with the in vitro staphyloxanthin production of the NP-16 analogues were being tested, the compounds can exert staphyloxanthin production inhibition. The staphyloxanthin from the overnight-cultured bacteria were extracted with methanol and quantified in via spectrophotometry. The results were presented in relative ratio to NP-16 in both the inhibition ratio as well as the TC50 (concentration for decreasing cell viability by 50%) in Table 3 (sample names correspond to those listed in Table 1).

USA300 = test: Minimum inhibitory concentration (MIC) test; format: cell-based; conditions: Staphylococcus aureus
Procedure: Minimum Inhibitory Concentration (MIC) Tests
MIC was determined by inoculating 5×10^4 S. aureus cells in 100 μl BHI medium in 96-well plates with a serial dilution of antibiotics.

MDCK cells = test: Cytotoxic activity on MDCK cells; format: cell-based
S. aureus COL [3] = test: Hydrogen peroxide susceptibility assay; format: cell-based, Staphylococcus aureus; conditions: grown with NP16 (40 μM); 440 mM H2O2, 1 hr
Procedure: (§1) Hydrogen Peroxide Susceptibility Assay
(§2) S. aureus was grown in BHI with or without NP16 (40 μM). After 2 days, bacteria were washed twice in PBS, diluted to a concentration of 1×10^7 CFUs per 100 μl reaction mixture in a 96-well plate. Hydrogen peroxide (H2O2) in PBS was added to a 440 mM final concentration, and the plate was incubated for 1 hr at 37° C. with shaking. The reaction was stopped by the addition of 1,000 U/ml of exogenous catalase (Sigma-Aldrich, St. Louis, Mo.), and bacterial viability was assessed by plating dilutions on BHI agar plates.

[4] = system: non-pigmented strain RN6390; test: Hydrogen peroxide susceptibility assay, non-pigmented strain; format: cell-based, Staphylococcus aureus; conditions: non-pigmented strain RN6390, with or without NP16
Procedure: as §1, §2

S. aureus COL [5] = test: Bactericidal activity of human polymorphonuclear leukocytes; format: cell-based, Staphylococcus aureus; conditions: NP16-treated COL vs COL
Procedure: Bactericidal Activity of Polymorphonuclear Leukocytes
The killing of S. aureus by human polymorphonuclear leukocytes (PMNs) was determined as previously described, with some modifications. Briefly, PMNs (10^6) were mixed with ˜10^7 opsonized S. aureus bacteria MOI=10 in 24-well tissue culture plates. After centrifuged at 380 g for 8 min, plates were incubated at 37° C. for up to 1.5 h. PMNs were lysed with saponin (20 min on ice) and plated on BHIA plates. The percent survival was calculated by normalized with time zero. Statistics were performed with the Student's t-test (GraphPad Prism).

S. aureus COL [6] = test: Murine intraperitoneal infection model, liver and spleen CFUs; format: in vivo, BALB/c mice
Procedure: (§3) For other S. aureus sub-type, eight- to ten-week-old female BALB/c mice were injected intraperitoneally (i.p) with 4×10^8 CFUs of early stationary phase S. aureus COL. After 3 d, animals were euthanized, the liver and spleen were isolated, homogenized in PBS, and plated on to obtain viable counts. For the treatment study, mice were randomized into two groups at the start of the experiment and administered, i.p., either 0.35 mg of NP16 or PBS with 5% Tween-80 as a control, twice per day, starting on d −1 to d 2 (a total of eight doses for each). Intraperitoneal challenge with 4×10^8 CFUs of early stationary phases S. aureus COL was performed on d 0. The mice were sacrificed on d 3 for enumeration of bacterial CFUs in liver and spleen homogenates.
(§4) With the same intraperitoneal challenge used in FIGS. 3a, 3b and 3e, one group of mice (n=14) was treated with 0.35 mg of NP16 twice per day (days −1, 0, 1 and 2), and a second group (n=12) with a vehicle control.

[7] = system: clinical isolate S. aureus strain AE052; test: Murine intraperitoneal infection model, kidney bacterial loads; format: in vivo, BALB/c mice
Procedure: as §3
For the clinical isolate S. aureus strain AE052, all operations were similar to those used for the COL strain, except 10^8 CFUs of early stationary phase bacteria were used in the infection model, and kidneys were collected for monitoring bacterial loads. Statistics were performed using the Student's t-test (GraphPad Prism).
as §4

[8] = target: T1, 4,4-diapophytoene desaturase (CrtN) (Staphylococcus aureus, UniProt Q99R76); test: CrtN enzymatic assay; format: biochemical, S. aureus
T1 construct: made in house; host or cells: E. coli Rosetta (DE3)
T1 sequence (Q99R76 whole entry): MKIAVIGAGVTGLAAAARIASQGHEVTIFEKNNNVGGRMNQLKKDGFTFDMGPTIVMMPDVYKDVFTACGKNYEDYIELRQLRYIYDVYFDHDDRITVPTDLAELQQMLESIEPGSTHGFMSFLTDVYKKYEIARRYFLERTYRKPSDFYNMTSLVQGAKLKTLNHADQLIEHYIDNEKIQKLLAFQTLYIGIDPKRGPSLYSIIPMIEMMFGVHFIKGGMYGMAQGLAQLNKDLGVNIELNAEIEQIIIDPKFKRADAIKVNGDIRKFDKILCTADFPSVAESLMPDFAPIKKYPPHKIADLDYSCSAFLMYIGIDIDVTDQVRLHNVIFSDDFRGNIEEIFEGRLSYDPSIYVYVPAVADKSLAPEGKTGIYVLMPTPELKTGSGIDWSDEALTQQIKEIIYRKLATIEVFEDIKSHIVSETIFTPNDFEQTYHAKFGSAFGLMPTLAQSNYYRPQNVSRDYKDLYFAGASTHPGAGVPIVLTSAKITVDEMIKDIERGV
Procedure: crtN Expression, Purification and Enzymatic Assay
CrtN with a histidine-maltose binding protein (MBP) tag was overexpressed in E. coli Rosetta (DE3) cells. A 10 ml overnight culture was transferred into 1 L of LB medium supplemented with 100 μg/ml ampicillin. Induction was carried out with 1 mM IPTG for 12 hours at 16° C. at an OD of 0.6 at 600 nm. The cell lysate was loaded onto a Ni-NTA column, and CrtN was eluted using a 75-ml linear gradient of 0-0.4 M imidazole in 50 mM sodium phosphate buffer, with 400 mM sodium chloride, pH 6.6. The collected fractions were analysed by SDS-PAGE to confirm the peak for MBP-CrtN. The target peak fractions were concentrated and the buffer was exchanged to loading buffer without imidazole using a PD-10 column (GE Healthcare). The collected solution was treated with TEV protease at 4° C. overnight. The protein sample was applied to a maltose column, and the flow-through was collected as native CrtN protein. For enzyme assay, 10 μg of purified CrtN was incubated with 100 μl of 4,4′-diapophytoene liposomes (containing 5 nmol of 4,4′-diapophytoene), 150 μM FAD and buffer II (20 mM phosphate buffer pH 8.0, 100 mM NaCl) in a total volume of 660 μl at 37° C. for 2 h (standard assay). The reaction was stopped by adding 1 volume of CHCl3: MeOH (2:1, v/v). Followed by mixing, the sample was centrifuged at 16,000 g for 10 min. […]

Sequence of 4,4-diapophytoene desaturase (CrtN) (Staphylococcus aureus, UniProt O07855) (O07855 whole entry): as the sequence (Q99R76 whole entry) above

SMILES: c1ccc(Nc2ccccc2)cc1 [Diphenylamine]
- inhibitor of CrtN, level [1]: high micromolar level

SMILES: CC(=O)NC[C@H]1CN(c2ccc(N3CCOCC3)c(F)c2)C(=O)O1 [Linezolid, linezolid, reference compound]
- percentage of wound closure ([2]; 100 mg/kg oral twice a day): 48.4%

SMILES: C/C(=C\C(=O)OCCCCCCCCC(=O)O)C[C@@H]1OC[C@H](C[C@@H]2O[C@H]2[C@@H](C)[C@H](C)O)[C@@H](O)[C@H]1O [Mupirocin, mupirocin, reference compound]
- percentage of wound closure ([2]; 2% topical twice a day): 43.2%

SMILES: O=C(/C=C/c1ccccc1)Nc1ccc(S(=O)(=O)N2CCCC2)cc1 [NP16, 3-phenyl-N-[4-(1-pyrrolidinylsulfonyl)-phenyl]acrylamide]
- Relative ratio to NP16 based on inhibition ratio (S. aureus USA300): 1
- MIC (USA300): > 500 µM
- effect on the growth of MDCK cells (MDCK cells): no effect on the growth of MDCK cells
- susceptibility to hydrogen peroxide killing (S. aureus COL [3]): increase in the susceptibility of the pathogen to hydrogen peroxide killing
- susceptibility to hydrogen peroxide killing [4]: susceptibility was similar irrespective of NP16 treatment
- survival in human neutrophils (S. aureus COL [5]): COL survived significantly better than RN6390 and NP16-treated COL
- bacterial counts in the livers and spleens (S. aureus COL [6]; 0.35 mg twice per day i.p. (days -1, 0, 1, 2), 72 hours, vs control group, P<0.01): significantly lower
- decrease in surviving bacteria (S. aureus COL [6]; treatment group infected with COL): 98%
- bacterial counts in the kidneys ([7]; 0.35 mg twice per day i.p., 72 hours, vs control group, P<0.001): significantly lower
- mice below the detection threshold (kidneys) ([7]; n=10, versus 2 of 10 in the control group): 6 of 10
- decrease in surviving bacteria ([7]; treatment group infected with AE052): 98%
- inhibition of CrtN [8]: inhibitor for CrtN
